The source of these data is US5811442A, “Pharmaceutical compositions for the treatment of conditions associated with decreased blood flow” (priority 1997, dated 1998).

The test system of assay [1] is β2-containing nicotinic acetylcholine receptor subtypes. Nature of the assay: Determination of Dopamine Release (synaptosomes). The following applies: for EC50: read-out: Dopamine Release EC50. Format: cell-based. The source says:
Determination of Dopamine Release
Reported EC50 is expressed in nM and Emax represents the amount released relative to nicotine.

Assay [2] relates to ganglionic receptors. The experiment in a line: Determination of Interaction with Ganglia (maximal activation of ganglionic receptors). The conditions noted are these: percentage of the maximal activation induced by (S)-(-)-nicotine. Format: cell-based. The source says:
Typical ganglionic receptors include α3β4 receptor subtypes, (i.e., non-β2 containing receptor subtypes).
Determination of Interaction with Ganglia
The ganglionic tissues employed are representative of those which are believed absent of receptor subtypes containing β2-subunits.

Assay [3] deals with T1, muscle receptors (Homo sapiens, UniProt P02708+P07510+Q07001).
T1 construct: endogenous in cells
T1 sequence (P02708 21-457): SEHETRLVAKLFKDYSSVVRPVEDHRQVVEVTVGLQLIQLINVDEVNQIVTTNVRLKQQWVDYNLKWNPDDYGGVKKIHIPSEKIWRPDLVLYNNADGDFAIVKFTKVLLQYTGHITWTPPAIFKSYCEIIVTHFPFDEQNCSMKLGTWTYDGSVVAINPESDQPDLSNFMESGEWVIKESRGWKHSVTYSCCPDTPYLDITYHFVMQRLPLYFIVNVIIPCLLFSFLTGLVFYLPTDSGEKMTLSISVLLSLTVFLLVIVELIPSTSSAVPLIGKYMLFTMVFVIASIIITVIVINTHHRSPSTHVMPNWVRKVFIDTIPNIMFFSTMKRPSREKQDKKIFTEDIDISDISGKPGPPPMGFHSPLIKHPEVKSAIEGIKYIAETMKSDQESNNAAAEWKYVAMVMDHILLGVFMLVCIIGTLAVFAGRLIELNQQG
T1 sequence (P07510 23-517): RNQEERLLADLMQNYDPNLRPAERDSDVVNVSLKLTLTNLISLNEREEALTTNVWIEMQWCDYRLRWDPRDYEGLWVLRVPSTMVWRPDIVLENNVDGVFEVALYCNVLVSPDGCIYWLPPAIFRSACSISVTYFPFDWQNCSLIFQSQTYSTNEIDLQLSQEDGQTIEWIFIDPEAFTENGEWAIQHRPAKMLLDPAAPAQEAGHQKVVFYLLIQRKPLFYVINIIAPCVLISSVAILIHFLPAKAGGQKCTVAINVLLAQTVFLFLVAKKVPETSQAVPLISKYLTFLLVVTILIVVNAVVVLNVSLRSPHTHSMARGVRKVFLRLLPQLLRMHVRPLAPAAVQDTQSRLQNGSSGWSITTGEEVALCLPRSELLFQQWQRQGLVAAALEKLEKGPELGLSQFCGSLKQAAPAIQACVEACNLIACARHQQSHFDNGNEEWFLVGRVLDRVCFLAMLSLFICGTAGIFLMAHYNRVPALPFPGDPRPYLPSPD
T1 sequence (Q07001 22-517): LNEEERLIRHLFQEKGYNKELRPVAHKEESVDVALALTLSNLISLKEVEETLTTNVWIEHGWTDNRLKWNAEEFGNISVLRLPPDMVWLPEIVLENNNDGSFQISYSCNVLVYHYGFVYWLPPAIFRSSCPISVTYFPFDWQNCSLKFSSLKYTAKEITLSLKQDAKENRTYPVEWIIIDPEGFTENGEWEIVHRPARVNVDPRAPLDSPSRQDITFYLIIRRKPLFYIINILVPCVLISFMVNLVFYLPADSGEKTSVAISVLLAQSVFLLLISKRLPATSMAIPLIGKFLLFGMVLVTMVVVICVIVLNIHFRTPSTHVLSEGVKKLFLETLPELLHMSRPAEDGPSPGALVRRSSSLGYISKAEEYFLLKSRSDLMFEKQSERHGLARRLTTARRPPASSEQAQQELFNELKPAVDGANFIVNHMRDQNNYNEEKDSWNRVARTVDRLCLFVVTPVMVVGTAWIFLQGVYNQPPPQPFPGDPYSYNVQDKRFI
Nature of the assay: cell-based. The class given is cell-based. The conditions noted are these: for Muscle Effect (Emax): percentage of the maximal activation induced by (S)-(-)-nicotine; for Emax: read-out: Muscle Effect (Emax). The source says:
Determination of Interaction with Muscle
The muscle tissues employed are representative of those which are believed absent of receptor subtypes containing β2-subunits.

In assay [4] the target is T2, α4β2 receptor subtypes (Rattus norvegicus, UniProt P09483+P12390).
T2 construct: from tissue
T2 sequence (P09483 31-630): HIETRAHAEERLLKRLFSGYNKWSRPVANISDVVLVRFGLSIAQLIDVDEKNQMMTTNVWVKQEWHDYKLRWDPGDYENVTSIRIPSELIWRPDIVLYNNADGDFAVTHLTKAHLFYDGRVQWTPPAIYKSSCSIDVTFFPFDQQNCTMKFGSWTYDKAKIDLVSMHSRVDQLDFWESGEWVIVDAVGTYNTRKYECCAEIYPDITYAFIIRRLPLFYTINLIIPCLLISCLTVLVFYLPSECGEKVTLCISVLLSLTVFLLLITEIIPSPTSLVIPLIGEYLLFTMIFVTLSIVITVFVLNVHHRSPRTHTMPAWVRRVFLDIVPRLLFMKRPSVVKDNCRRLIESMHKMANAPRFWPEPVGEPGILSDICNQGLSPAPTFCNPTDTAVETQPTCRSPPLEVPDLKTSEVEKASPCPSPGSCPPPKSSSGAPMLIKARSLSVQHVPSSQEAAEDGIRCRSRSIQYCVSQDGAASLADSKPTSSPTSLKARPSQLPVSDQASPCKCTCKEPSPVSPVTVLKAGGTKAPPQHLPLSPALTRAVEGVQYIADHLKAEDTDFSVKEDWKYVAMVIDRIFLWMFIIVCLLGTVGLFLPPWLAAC
T2 sequence (P12390 25-500): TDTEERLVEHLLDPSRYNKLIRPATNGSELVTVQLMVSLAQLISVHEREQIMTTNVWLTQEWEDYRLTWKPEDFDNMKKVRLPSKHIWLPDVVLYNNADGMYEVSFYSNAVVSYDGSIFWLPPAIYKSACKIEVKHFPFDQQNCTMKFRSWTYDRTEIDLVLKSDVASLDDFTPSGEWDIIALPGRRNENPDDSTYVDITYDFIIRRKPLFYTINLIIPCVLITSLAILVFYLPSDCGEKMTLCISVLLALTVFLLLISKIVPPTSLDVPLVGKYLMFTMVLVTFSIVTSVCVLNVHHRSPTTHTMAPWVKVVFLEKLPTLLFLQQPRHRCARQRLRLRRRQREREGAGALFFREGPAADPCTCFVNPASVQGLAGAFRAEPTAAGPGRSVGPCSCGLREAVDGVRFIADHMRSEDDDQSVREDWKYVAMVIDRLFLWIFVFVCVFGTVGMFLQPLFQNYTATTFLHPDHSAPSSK
Nature of the assay: Determination of Binding to Relevant Receptor Sites. The following applies: calculated from IC50 values using the method of Cheng et al. The source says: Receptor binding constants provide a measure of the ability of the compound to bind to relevant receptor sites of certain cells of the patient.
Determination of Binding to Relevant Receptor Sites

Assay [5] concerns nicotinic acetylcholine receptor subtypes including β2-subunits. The following applies: reported; cited from earlier work.
Setting [6] is: read-out: Dopamine Release Emax.
Where [7] appears, read: read-out: Dopamine Release Emax, percentage of release obtained with (S)-(-)-nicotine concentration resulting in maximal effects.

Where two headings read alike, the source gives them in different places. A value given as a limit tells only on which side of the number the result lay.

For `CNCC/C=C/c1ccc(C)nc1` [Sample No. 1, (E)-N-methyl-4[3-(6-methylpyridin)yl]-3-buten-1-amine monofumarate], the EC50 (as a rule, the concentration needed to bring the measured effect to its halfway point) in assay [1] worked out at 10 µM. For the same compound, the Emax in assay [1] (setting [6]) worked out at 115%. Further, the “Ganglion Effect (Emax)” value in assay [2] amounted to 4 % nicotine.

For the compound `CNCC/C=C/c1cncc(-c2ccccc2)c1` [Sample No. 3, (E)-N-Methyl-4-[3-(5-phenylpyridin)yl]-3-buten-1-amine], in assay [1], the EC50 was greater than 100 µM. In assay [1] (setting [7]), the Emax is greater than 160%. Moreover, the “Muscle Effect (Emax)” value in assay [3] is 8 % nicotine. Besides, the “Ganglion Effect (Emax)” value in assay [2] was 0 % nicotine.

`COc1cncc(/C=C/CCN)c1` [Sample No. 4, (E)-4-[3-(5-methoxypyridin)yl]-3-buten-1-amine monofumarate]: the EC50 in assay [1] worked out at 3.8 µM. The “Ganglion Effect (Emax)” value in assay [2] stood at 0 % nicotine.

For `CNCC/C=C/c1cncc(N)c1` [Sample No. 5, (E)-N-methyl-4-[3-(5-aminopyridin)yl]-3-buten-1-amine], the EC50 in assay [1] was 2 µM. In addition, the Emax in assay [1] (setting [7]) was 85%. In addition, in assay [3], the “Muscle Effect (Emax)” value stood at 4 % nicotine. For the same compound, the “Ganglion Effect (Emax)” value in assay [2] was 4 % nicotine.

Take `CNCC/C=C/c1cncc(OCc2ccccc2)c1` [Sample No. 6, (E)-N-Methyl-4-[3-(5-benzyloxypyridin)yl]-3-buten-1-amine]: in assay [1], the concentration for a half-maximal effect (EC50) amounted to 4 µM. The Emax in assay [1] (setting [7]) turned out to be 33%. The “Muscle Effect (Emax)” value in assay [3] was 12 % nicotine. Also, the “Ganglion Effect (Emax)” value in assay [2] amounted to 0 % nicotine.

Take `CNCC/C=C/c1cncc(Br)c1` [Sample No. 7, (E-N-methyl-4-[3-5-bromopyridin)yl]-3-buten-1-amine monofumarate]: the concentration giving a half-maximal response (EC50) in assay [1] turned out to be 2.4 µM. The Emax in assay [1] (setting [7]) came out at 107%; in assay [3], 8%. Besides, the inhibition constant Ki (commonly a dissociation constant, usually derived from enzyme kinetics or from competition with a known ligand) in assay [4] is 0.079 µM. Also, in assay [2], the “Ganglion Effect (Emax)” value came to 11 % nicotine.

In the case of `CNCC/C=C/c1cncc(OC)c1` [Sample No. 8, (E)-N-methyl-4-[3-(5-methoxypyridin)yl]-3-butene-1-amine], the EC50 in assay [1] came out at 0.191 µM. Also, in assay [1] (setting [7]), the Emax worked out at 103%. The Ki in assay [4] is 0.01 µM. In addition, the “Muscle Effect (Emax)” value in assay [3] amounted to 0 % nicotine. The “Ganglion Effect (Emax)” value in assay [2] stood at 0 % nicotine.

For `CCOc1cncc(/C=C/CCNC)c1` [Sample No. 9, (E)-N-methyl-4-[3-(5-ethoxypyridin)yl]-3-butene-1-amine], in assay [1] (dopamine release), the EC50 was found to be 0.287 µM. The “Dopamine Release Emax” value in assay [1] (percentage of release obtained with (S)-(-)-nicotine concentration resulting in maximal effects) was 124%. The inhibitory constant (Ki) in assay [4] is 0.009 µM. Also, the “Muscle Effect (Emax)” value in assay [3] is listed as 0 % nicotine. For the same compound, the “Ganglion Effect (Emax)” value in assay [2] turned out to be 0 % nicotine.

`CNC(C)C/C=C/c1cccnc1` (stereo not shown) [Sample No. 10, (E)-N-methyl-5-(3-pyridinyl)-4-penten-2-amine]: the EC50 in assay [1] turned out to be 21.4 µM. Also, the Emax in assay [1] (setting [7]) was found to be 182%. Moreover, in assay [4], the Ki was 0.082 µM. For the same compound, the “Muscle Effect (Emax)” value in assay [3] worked out at 4 % nicotine. Moreover, the “Ganglion Effect (Emax)” value in assay [2] came out at 6 % nicotine.

Regarding `CNCC/C=C/c1cncnc1` [Sample No. 11, (E)-N-methyl-4-(5-pyrimidinyl)-3-buten-1-amine], the Emax in assay [3] is 12%. Besides, the “Ganglion Effect (Emax)” value in assay [2] is 0 % nicotine.

Take `CNCC/C=C\c1cccnc1` [Sample No. 12, (Z)-metanicotine monofumarate]: in assay [1], the EC50 came to 8.31 µM. Further, in assay [1] (setting [6]), the Emax was 96%.

Regarding `NCC/C=C/c1cncc(Br)c1` [Sample No. 13, (E)-4-[3-(5-Bromopyridin)yl]-3-buten-1-amine Hemifumarate], in assay [1], the EC50 turned out to be 0.049 µM. Moreover, the Emax in assay [1] (setting [7]) was 29%; in assay [3], 5%. For the same compound, in assay [4], the Ki was 0.707 µM. The “Ganglion Effect (Emax)” value in assay [2] is recorded as 0 % nicotine.

Regarding `CNCC/C=C/c1cccnc1` [Sample No. 14, (E)-metanicotine monofumarate], the EC50 in assay [1] turned out to be 1.02 µM. Besides, the Emax in assay [1] (setting [6]) was 90%.

On to `CNCC/C=C/c1cncc(Oc2ccccc2)c1` [Sample No. 15, (E)-N-Methyl-4-[3-(5-phenoxypyridin)yl]-3-buten-1-amine], for which, in assay [1], the EC50 was 0.114 µM. Moreover, the Emax in assay [1] (setting [7]) was 14%. In addition, in assay [3], the “Muscle Effect (Emax)” value came to 5 % nicotine. In addition, the “Ganglion Effect (Emax)” value in assay [2] was less than 15 % nicotine.

As for `CNCC/C=C/c1cncc(OC(C)C)c1` [Sample No. 16, (E)-N-Methyl-4-[3-(5-isopropoxypyridin)yl]-3-buten-1-amine], the EC50 in assay [1] turned out to be 0.051 µM. For the same compound, the Emax in assay [1] (setting [7]) was 57%. Also, in assay [3], the “Muscle Effect (Emax)” value is recorded as 8 % nicotine. Further, the “Ganglion Effect (Emax)” value in assay [2] is recorded as less than 15 % nicotine.

Consider `CNCC/C=C/c1cncc(COC)c1` [Sample No. 17, (E)-N-Methyl-4-[3-(5-methoxymethylpyridin)yl]-3-buten-1-amine], for which the EC50 in assay [1] was 16 µM. Further, the Emax in assay [1] (setting [7]) was found to be 46%. Also, the “Muscle Effect (Emax)” value in assay [3] is 13 % nicotine. The “Ganglion Effect (Emax)” value in assay [2] stood at 0 % nicotine.

As to `NCC/C=C/c1cccnc1.O=C(O)/C=C/C(=O)O.O=C(O)/C=C/C(=O)O` [Sample No. 18, (E)-4-(3-pyridinyl)-3-buten-1-amine difumarate], in assay [1], the EC50 turned out to be 5.02 µM. The Emax in assay [1] (setting [7]) came to 81%. Moreover, the “Muscle Effect (Emax)” value in assay [3] is 15 % nicotine. Further, the “Ganglion Effect (Emax)” value in assay [2] came to 23 % nicotine.

For the compound `CCOc1cncc(/C=C/CCNC)c1` [Sample No. 19, (E)-N-Methyl-4-[3-(5-ethoxypyridin)yl]-3-buten-1-amine sesquifumarate], the EC50 in assay [1] (dopamine release) worked out at 0.276 µM. Further, the “Muscle Effect (Emax)” value in assay [3] came out at 3 % nicotine. Besides, the “Ganglion Effect (Emax)” value in assay [2] is given as less than 15 % nicotine.

Regarding `CN1CCC[C@H]1c1cccnc1` [Sample No. C-1, (S)-(-)-nicotine, reference compound], the “affinity to bind to nicotinic acetylcholine receptor subtypes (in words)” value in assay [5] is listed as “demonstrated affinity to bind to numerous nicotinic acetylcholine receptor subtypes including β2-subunits”. The Emax in assay [1] (setting [6]) turned out to be 100%. The “Ganglion Effect (Emax)” value in assay [2] was determined as 100 % nicotine.
